Assay results reported in paper PMC10247892 (Biomedicine & Pharmacotherapy, 2023).

Legend:
SARS-CoV-2 D614G = assay: SARS-CoV-2 antiviral activity in a human nasal epithelial model; format: cell-based; conditions: HNE model
SARS-CoV-2 = SARS-CoV-2 replication on Calu-3 cells; format: cell-based; conditions: non-cytotoxic concentrations
[1] = tested on: wildtype SARS-CoV-2 virus (D614G variant); set-up: species or system golden Syrian hamsters; conditions: hamster, in vivo

With CCC(CC)COC(=O)[C@H](C)N[P@](=O)(OC[C@H]1O[C@@](C#N)(c2ccc3c(N)ncnn23)[C@H](O)[C@@H]1O)Oc1ccccc1 [Remdesivir] the “Effect on viral replication (in words)” value (SARS-CoV-2 D614G; drug in the basal medium) was “completely blocked it”.

OC[C@H]1O[C@@H]2O[C@H]3[C@H](O)[C@@H](O)[C@@H](O[C@H]4[C@H](O)[C@@H](O)[C@@H](O[C@H]5[C@H](O)[C@@H](O)[C@@H](O[C@H]6[C@H](O)[C@@H](O)[C@@H](O[C@H]7[C@H](O)[C@@H](O)[C@@H](O[C@H]8[C@H](O)[C@@H](O)[C@@H](O[C@H]1[C@H](O)[C@H]2O)O[C@@H]8CO)O[C@@H]7CO)O[C@@H]6CO)O[C@@H]5CO)O[C@@H]4CO)O[C@@H]3CO [β-CD, ß-Cyclodextrin] was tested, and the “Inhibition of SARS-CoV-2 viral activity (in words)” value (SARS-CoV-2; D614G variant) was “inhibited the SARS-CoV-2 viral activity” and the “Inhibition of SARS-CoV-2 viral activity (in words)” value (SARS-CoV-2; Omicron BA.1 variant) was “inhibited the SARS-CoV-2 viral activity”.

With Methyl-β-cyclodextrin [MβCD] the “Prophylactic effect (in words)” value [1] was “less potent prophylactic effect”, the “Reduction of viral replication” value (SARS-CoV-2 D614G; 2.5 mM constantly in the basal side) was 11% and the “Reduction of viral replication” value (SARS-CoV-2 D614G; 2.5 mM on the apical side (initial addition), 48 h pi) was 74%.
